Assay results from a melting point compilation (Tetko et al.; mined from patent text by program, amines drawn as free bases though some values may be those of a salt).

Row | Compound | melting point [°C]
1 | Cc1nn(-c2ccc(F)cc2F)cc1C(=O)O | 245 to 247
2 | O=C1c2ccccc2C(=O)c2sc(-c3ncc(-c4ccccc4)o3)nc21 | > 260
3 | O=c1ccc(-c2cc(F)c(OC3CCN(C4CCC4)CC3)c(F)c2)n[nH]1 | 195 to 197
4 | FC(F)(F)c1cccc2snnc12 | 41 to 44
5 | COC1=C(OC)C(=O)C2=C(CCC(CCn3ccccc3=O)CC2)C1=O | 85 to 89
6 | CN1CCC(OC2c3ccccc3CCn3c2nc(I)c3C#N)CC1 (stereo unspecified) | 195
7 | O=C(Nc1nnn(CC2CC2)n1)C1c2ccccc2Oc2ccccc21 | 222 to 224
8 | O=C1CC(O)CC(CCc2c(Cl)cc(Cl)cc2OCc2ccc(C(F)(F)F)cc2)O1 (stereo unspecified) | 104 to 105
9 | CC(C)n1c(=O)n(C(=O)NCC2CCN(CC3(C(=O)O)CCOCC3)CC2)c2ccccc21 | 176
10 | COC(=O)c1cc(Br)ccc1Cl | 43 to 44
11 | CCCc1nc2cnc3cc(C)ccc3c2o1 | 65 to 68
12 | COc1ccc(F)c(F)c1C(=O)c1cnc(Cl)nc1Cl | 137 to 139
13 | CC1(C)OC(c2ccc(Cl)cc2Cl)C(Cn2cncn2)(c2ccc(Cl)cc2)O1 (stereo unspecified) | 141 to 142
14 | CC1(C)OC(=O)Nc2ccc(-c3cccc([N+](=O)[O-])c3)cc21 | 244 to 245
15 | COc1cc(C(=O)N2Cc3ccc(C(=O)NCc4cccc(C(F)(F)F)c4)n3Cc3ccccc32)ccc1-c1ccccc1C | 176 to 177
16 | O=c1ccnc(NCCCN(Cc2ccccc2)c2ccccn2)[nH]1 | 162 to 163
17 | COc1cc(SC)sc1C1NC(C)(C)CO1 (stereo unspecified) | 56 to 58
18 | O=c1c2ccccc2nc2n1CCc1c-2[nH]c2ccc(F)cc12 | 290
19 | CCOC(=O)Cc1cc(CC)c(C(=O)c2ccc(Cl)cc2)n1C | 73 to 75
20 | CC(C)(C)c1ccc(C(=O)Nc2cn3nc(NCCc4ccncc4)ccc3n2)cc1 | 279
21 | c1ccc(CCc2n[nH]c(NCCCCOc3cccc(CN4CCCCC4)c3)n2)cc1 | 146 to 147
22 | Cc1noc(-c2c3cccc(-c4ccc(Cl)cc4Cl)c3nn2C)n1 | 178
23 | COc1ccc(CN2C(=O)C3(COc4cc5c(C)noc5cc43)c3ccccc32)cc1 (stereo unspecified) | 183 to 184
24 | O=C(O)Cc1ccc2c(c1)C(c1ccccc1)C(=O)O2 (stereo unspecified) | 136
25 | Fc1cc(Cl)cc2cc(-c3ccccc3)[nH]c12 | 153 to 155
26 | C#CCOC(=O)C=C(C)C=CC=C(C)C=Cc1c(C)cc(OC)c(C)c1C | 94 to 95

Row | Compound | melting point [°C]
27 | O=C(Nc1ccc2nc(CN3CCCC3)ccc2c1)N1CCC(c2ccccc2)CC1 | 187 to 189
28 | O=c1sc2cc(Cl)ccc2n1CCCCl | 131 to 132
29 | CS(=O)(=O)Nc1cccc(Nc2nc(NC3CCC3)c3nc[nH]c3n2)c1 | 142 to 146
30 | COCCN1CCc2ccc(Nc3ncc(Cl)c(Nc4ccccc4C(=O)NC(C)C)n3)cc2CC1 | 186 to 189
31 | CC(C)c1cc(Cl)nc(-c2ccc(C#N)cc2)n1 | 114
32 | CCOC(=O)CNC(=S)NC(=Nc1ccccc1)c1ccccc1 | 151 to 152
33 | CCN1C(=O)C(=O)N(c2ccc(F)cc2)C1=S | 172 to 174
34 | O=C(NCCCl)NCc1cccnc1 | 95
35 | COc1cc2nc(N3CCN(C(=O)CC(O)c4ccccc4)CC3)nc(N)c2cc1OC (stereo unspecified) | 222
36 | CCOC(=O)N1CCc2cc(OC)c(OC)cc2C(Oc2ccc(C(F)(F)F)cc2)C1 (stereo unspecified) | 130 to 131
37 | O=c1[nH]c(CCCN2CCCC2)cc2c(O)cccc12 | 222 to 225
38 | CCOC(=O)c1cn(-c2ccccn2)cn1 | 118 to 119
39 | CC(=O)NCCC1CCc2ccc3nc(CCCc4ccccc4)oc3c21 (stereo unspecified) | 95 to 97
40 | CC(C)(C)OC(=O)C[C@H](NC(=O)c1cccc(NC(=O)Cc2ccc(C(=N)N)cc2)c1)C(=O)N[C@@H](Cc1ccccc1)C(=O)OC(C)(C)C | 125
41 | COc1nc2ccccc2nc1NC(=O)N1CCN(c2c(C)c(C)cc(C)c2C)CC1 | 237 to 239
42 | c1ccc(C2(Oc3cnccn3)CCNCC2)cc1 | 107 to 108
43 | CC(C)C(NC(=O)OC(C)(C)C)C(=O)OCC1OC(n2cc(C=CBr)c(=O)[nH]c2=O)CC1Cl (stereo unspecified) | 75 to 76
44 | O=P(c1ccccc1)(c1ccccc1)c1cc(P(=O)(c2ccccc2)c2ccccc2)nc(P(=O)(c2ccccc2)c2ccccc2)n1 | 235 to 236
45 | CCOC(=O)CN1CC[C@@H](O)C1=O | 84 to 85
46 | COc1ccc(CCNC(=O)CN)cc1OC1CCCC1 | 57 to 60
47 | Nc1ncnc2c1nnn2[C@@H]1C[C@H](CO)[C@@H](O)[C@@H]1F | 214 to 216
48 | FC(F)(F)c1cc(CO[C@@H]2CCCN(Cc3ccco3)[C@@H]2c2ccccc2)cc(C(F)(F)F)c1 (relative stereo) | 103 to 104
49 | COc1cc(OC)nc(Sc2sccc2NC(=O)C(F)(F)F)n1 | 88 to 90
50 | C[C@@H](C[C@H](N)C(=O)O)C(=O)O | 163 to 164
51 | CN1Cc2c(C#C[Si](C)(C)C)ncn2-c2cccc(Cl)c2C1=O | 186 to 187
